Key:
[1] = target: T1, human 5-HT1A receptor (Homo sapiens, UniProt P08908); assay: Affinity measurement of the compounds to human 5-HT1A receptor (in vitro), [3H]8-OH-DPAT binding; conditions: test compound 100 nmols/L, [3H]8-OH-DPAT 0.25 nmols/L, CHO cell membrane expressing human 5-HT1A receptor; for inhibition at 0.1 µM: read-out: Percent Inhibition (%) on Each Receptor's Binding at 10^−7M, 5-HT1A
T1 construct: purchased Packard Bioscience; host or cells: CHO cells (membrane preparation)
T1 sequence (P08908 1-422): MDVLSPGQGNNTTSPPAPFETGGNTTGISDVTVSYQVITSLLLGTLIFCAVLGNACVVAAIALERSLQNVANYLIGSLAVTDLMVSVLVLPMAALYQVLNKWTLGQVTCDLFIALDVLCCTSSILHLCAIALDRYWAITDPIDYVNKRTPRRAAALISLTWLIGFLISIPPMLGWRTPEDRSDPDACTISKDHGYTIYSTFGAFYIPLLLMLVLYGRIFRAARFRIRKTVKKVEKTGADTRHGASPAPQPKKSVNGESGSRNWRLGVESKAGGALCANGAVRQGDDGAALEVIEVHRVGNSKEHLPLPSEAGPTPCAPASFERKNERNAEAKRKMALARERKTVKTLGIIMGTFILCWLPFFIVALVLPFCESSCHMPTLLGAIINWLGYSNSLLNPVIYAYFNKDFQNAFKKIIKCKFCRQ
Method in brief: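 Membranes from CHO cells expressing human 5-HT1A were incubated 60 min at 27 °C with 0.25 nmol/L [3H]8-OH-DPAT and compound in Tris/MgSO4/EDTA/ascorbate buffer, pH 7.4. Bound radioactivity was collected on PEI-soaked GF/C filters and counted; percent inhibition was corrected for non-specific binding defined with 10 μmol/L 8-OH-DPAT.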

[2] = target: T2, human 5-HT3 receptor (Homo sapiens, UniProt P46098); assay: Measurement of affinity to human 5-HT3 receptor (in vitro), [3H]BRL-43694 binding; conditions: test compound 100 nmols/L, [3H]BRL-43694 0.5 nmols/L, HEK-293 cell membrane expressing human 5-HT3 receptor; for inhibition at 0.1 µM: read-out: Percent Inhibition (%) on Each Receptor's Binding at 10^−7M, 5-HT3
T2 construct: purchased BIOLINKS K.K; host or cells: HEK-293 cells (membrane preparation)
T2 sequence (P46098 24-478): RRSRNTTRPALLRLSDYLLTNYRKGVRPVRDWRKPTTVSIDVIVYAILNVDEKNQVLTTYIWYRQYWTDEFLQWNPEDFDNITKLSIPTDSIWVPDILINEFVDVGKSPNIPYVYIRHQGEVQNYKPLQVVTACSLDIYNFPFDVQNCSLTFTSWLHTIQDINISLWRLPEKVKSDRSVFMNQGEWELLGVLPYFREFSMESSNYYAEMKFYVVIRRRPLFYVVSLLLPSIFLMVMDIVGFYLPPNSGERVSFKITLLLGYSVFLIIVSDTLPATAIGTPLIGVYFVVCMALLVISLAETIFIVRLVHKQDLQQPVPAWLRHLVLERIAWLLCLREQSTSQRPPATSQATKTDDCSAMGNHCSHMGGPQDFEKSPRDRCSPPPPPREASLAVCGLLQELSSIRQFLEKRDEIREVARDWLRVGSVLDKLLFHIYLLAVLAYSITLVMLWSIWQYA
Method in brief: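 Membranes from HEK-293 cells expressing the receptor were incubated with 0.5 nmol/L radioligand and compound for 60 min at 25 °C in Tris/MgCl2/EDTA buffer, pH 7.5. Bound radioactivity was collected by filtration and counted. Percent inhibition was corrected for non-specific binding defined with 10 μmol/L tropisetron; compounds were tested at 100 nmol/L.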

Row | inhibition at 0.1 µM [1] [%] | inhibition at 0.1 µM [2] [%] | Percent Inhibition (%) on Each Receptor's Binding at 10^−7M, 5-HT1A [1] [%] | Percent Inhibition (%) on Each Receptor's Binding at 10^−7M, 5-HT3 [2] [%] | SMILES
1 | 96.8 | 88.7 | – | – | CCC1CCc2nc(CCCCN3CCN(c4ccc5ccccc5n4)CC3)n(N)c(=O)c2C1 (stereo not drawn) [Example 4-61, 3-amino-6-ethyl-2-[4-(4-quinolin-2-ylpiperazin-1-yl)butyl]-5,6,7,8-tetrahydro-3H-quinazolin-4-one]
2 | 92.1 | 83.5 | – | – | CN1CCN(c2nccc3ccc(N(C)C)cc23)CC1 [Production Example 89, 7-dimethylamino-1-(4-methylpiperazin-1-yl)isoquinoline]
3 | 77.8 | 16.7 | – | – | CC(CCCc1nc2c(c(=O)n1C)CCCC2)N1CCN(c2ccc3ccccc3n2)CC1 (stereo not drawn) [Example 7-14, 3-methyl-2-[4-(4-quinolin-2-ylpiperazin-1-yl)pentyl]-5,6,7,8-tetrahydro-3H-quinazolin-4-one]
4 | 90.4 | 87.7 | – | – | CC1CCCc2c1nc(CCCCN1CCN(c3ccc4ccccc4n3)CC1)n(N)c2=O (stereo not drawn) [Example 4-36, 3-amino-8-methyl-2-[4-(4-quinolin-2-ylpiperazin-1-yl)butyl]-5,6,7,8-tetrahydro-3H-quinazolin-4-one]
5 | 99.8 | 95.9 | – | – | CCOC(=O)c1sc2nc(SCCCN3CCN(c4ccc5ccccc5n4)CC3)n(N)c(=O)c2c1C [Example 1-14, 3-amino-5-methyl-4-oxo-2-[3-(4-quinolin-2-ylpiperazin-1-yl)-propylthio]-3,4-dihydrothieno[2,3-d]pyrimidine-6-carboxylic acid ethyl ester]
6 | 77 | 74.8 | – | – | Cc1sc2nc(CCCCN3CCN(c4ccc5ccccc5n4)CC3)n(C)c(=O)c2c1C [Example 7-23, 3,5,6-trimethyl-2-[4-(4-quinolin-2-ylpiperazin-1-yl)butyl]-3H-thieno[2,3-d]pyrimidin-4-one]
7 | 96.9 | 91.5 | – | – | CC1CCc2nc(CCCCN3CCN(c4ccc5ccccc5n4)CC3)n(N)c(=O)c2C1 (stereo not drawn) [Example 4-60, 3-amino-6-methyl-2-[4-(4-quinolin-2-ylpiperazin-1-yl)butyl]-5,6,7,8-tetrahydro-3H-quinazolin-4-one]
8 | 77 | 96.9 | – | – | Cc1sc2nc(CCCCN3CCN(c4ccc5ccccc5n4)CC3)[nH]c(=O)c2c1C [Example 3-1, 5,6-dimethyl-2-[4-(4-quinolin-2-ylpiperazin-1-yl)butyl]-3H-thieno[2,3-d]pyrimidin-4-one]
9 | – | – | 94.0 | 94.2 | Cc1cc(N2CCN(CCCSc3nc4sc5c(c4c(=O)n3N)CCCC5)CC2)nc2ccccc12 [Example 1-33]
10 | 85 | 61.2 | – | – | O=c1c2c(nc(CCCCN3CCN(c4ccc5ccccc5n4)CC3)n1Cc1ccccc1)CCCC2 [Example 7-4, 3-benzyl-2-[4-(4-quinolin-2-ylpiperazin-1-yl)butyl]-5,6,7,8-tetrahydro-3H-quinazolin-4-one]
11 | 45 | 24.7 | – | – | O=c1c2c(nc(CCCCN3CCN(c4nc5ccccc5s4)CC3)n1Cc1ccccc1)CCCC2 [Example 7-11, 2-[4-(4-benzothiazol-2-ylpiperazin-1-yl)butyl]-3-benzyl-5,6,7,8-tetrahydro-3H-quinazolin-4-one]
12 | 88.2 | 60.8 | – | – | Fc1ccc(COc2ccc3ccnc(N4CCNCC4)c3c2)cc1 [Production Example 98, 7-(4-fluorobenzyloxy)-1-piperazin-1-ylisoquinoline]
13 | 95.7 | 79.6 | – | – | NN1Oc2c(sc3c2CCCCCC3)N=C1SCCCN1CCN(c2ccc3ccccc3n2)CC1 [Example 1-24, 3-amino-2-[3-(4-quinolin-2-ylpiperazin-1-yl)propylthio]-3,4,5,6,7,8,9,10-octahydro-4-oxa-11-thia-1,3-diaza-11H-cycloocta[a]-indene]
14 | 96.1 | 92.5 | – | – | Nn1c(CCCCN2CCN(c3ccc4ccccc4n3)CC2)nc2c(c1=O)CC(O)CC2 (stereo not drawn) [Example 4-70, 3-amino-6-hydroxy-2-[4-(4-quinolin-2-ylpiperazin-1-yl)butyl]-5,6,7,8-tetrahydro-3H-quinazolin-4-one]
15 | 98 | 96.9 | – | – | Cc1sc2nc(CCCCN3CCN(c4ccc5ccccc5n4)CC3)n(N)c(=O)c2c1C [Example 4-35, 3-amino-5,6-dimethyl-2-[4-(4-quinolin-2-ylpiperazin-1-yl)butyl]-3H-thieno[2,3-d]pyrimidin-4-one]
16 | 74.7 | 87.3 | – | – | Cn1c(SCCCN2CCN(c3ccc4ccccc4n3)CC2)nc2ccccc2c1=O [Example 7-28]
17 | 91 | 32 | – | – | Cn1c(CCCCN2CCN(c3nc4ccccc4s3)CC2)nc2c(c1=O)CCCC2 [Example 7-9, 2-[4-(4-benzothiazol-2-ylpiperazin-1-yl)butyl]-3-methyl-5,6,7,8-tetrahydro-3H-quinazolin-4-one]
18 | 90.2 | 93.6 | – | – | CCn1c(CCCCN2CCN(c3ccc4ccccc4n3)CC2)nc2c(c1=O)CC(C)CC2 (stereo not drawn) [Example 7-13, 3-ethyl-6-methyl-2-[4-(4-quinolin-2-ylpiperazin-1-yl)butyl]-5,6,7,8-tetrahydro-3H-quinazolin-4-one]
19 | 97.5 | 99.7 | – | – | Cn1c(CCCCN2CCN(c3ccc4ccccc4n3)CC2)nc2ccc(Cl)cc2c1=O [Example 7-25, 6-chloro-3-methyl-2-[4-(4-quinolin-2-ylpiperazin-1-yl)butyl]-3H-quinazolin-4-one]

Row | SMILES | inhibition at 0.1 µM [1] [%] | inhibition at 0.1 µM [2] [%] | Percent Inhibition (%) on Each Receptor's Binding at 10^−7M, 5-HT1A [1] [%] | Percent Inhibition (%) on Each Receptor's Binding at 10^−7M, 5-HT3 [2] [%]
20 | NS(=O)(=O)Oc1ccc2ccnc(N3CCN4CCC[C@H]4C3)c2c1 [Production Example 87] | 96.4 | 96.9 | – | –
21 | COc1ccc2ccnc(N3CCN4CCC[C@@H]4C3)c2c1 [Production Example 77, 1-((8aR)-octahydropyrrolo[1,2-a]pyrazin-2-yl)-7-methoxyisoquinoline] | 98.9 | 97.9 | – | –
22 | Clc1ccc2c(N3CCNCC3)nccc2c1 [Production Example 57, 6-chloro-1-piperazin-1-ylisoquinoline] | 88.9 | 96.5 | – | –
23 | COc1ccc2c(C)cnc(N3CCNCC3)c2c1 [Production Example 28, 7-methoxy-4-methyl-1-piperazin-1-ylisoquinoline] | 23.9 | 92.5 | – | –
24 | Cc1cc2c(N3CCN4CCC[C@@H]4C3)nccc2o1 [Production Example 115, 4-((8aR)-octahydropyrrolo[1,2-a]pyrazin-2-yl)-2-methylfuro[3,2-c]pyridine] | 82 | 74.3 | – | –
25 | CN1CCN(c2nccc3cccnc23)CC1 [Production Example 23, 8-(4-methylpiperazin-1yl)[1,7]naphthyridine] | 83.2 | 85.8 | – | –
26 | CN1CCN(c2nccc3c(Cl)cccc23)CC1 [Production Example 61, 5-chloro-1-(4-methylpiperazin-1-yl)isoquinoline] | 25.3 | 94.1 | – | –
27 | COc1ccc2c(N3CCNCC3)nccc2c1 [Production Example 40, 6-methoxy-1-piperazin-1-ylisoquinoline] | 42.9 | 99.3 | – | –

Source: patent US7799775B2, “Pyrimidine derivatives” (ASKA Pharmaceutical Co., Ltd., priority 2004, dated 2010)
